Test results as given in patent US9453026B2, “ACC inhibitors and uses thereof” (Gilead Apollo, Inc., priority 2011, dated 2016).
pIC50: −log10 of the molar value. ≈ marks a conversion by molar mass, not a printed value. Where “and” joins values, the source holds several entries; their conditions need not be identical. Equal values may be shown once. Read-outs that look alike come from different tables or passages of the source.

Experiments:
[1] = target: ACC2 (Homo sapiens, UniProt O00763); assay: In vitro ACC2 inhibition assay (ADP-Glo); format: biochemical; details: read-out: ACC2
Summary of the method: (§1)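 Enzyme (human ACC1 or ACC2) and compound, serially diluted 1:3 over 11 points from a 600 uM DMSO stock, were preincubated 15 min before substrate addition.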

[2] = target: ACC1 (Homo sapiens, UniProt Q13085); assay: In vitro ACC1 inhibition assay (ADP-Glo); format: biochemical; details: read-out: ACC1
Summary of the method: as §1

[3] = tested on: target protein (ACC); assay: Thermal Shift Assay (TSA); format: binding
Excerpt: 103, 43, 15835-15840, the entirety of which is incorporated herein by reference.

[4] = tested on: C. krusei ATCC 6258; assay: Anti-Fungal Activity Assay (broth microtiter MIC); format: cell-based; details: 3 replicates, test compounds read at 48 h
Method: (§2) Compounds of the present invention were evaluated in an Anti-Fungal Activity Assay. An exemplary procedure for the assay, which measures the susceptibility of various Candida species to anti-fungal compounds, follows. Compounds to be tested (including fluconazole and amphotericin B) were dissolved in DMSO to obtain a solution having a concentration of 1 mg/mL. […] All species were grown from frozen stock by directly plating on to freshly prepared Sabouraud Dextrose agar (BD, Difco) and incubated overnight in ambient air at 35° C. for 24 h. A direct suspension was prepared in RPMI 1640+MOPS (Lonza, Biowhittaker) by taking individual colonies from the overnight cultures using sterile swabs soaked in sterile saline. The concentration of the suspension was determined using pre-determined standard curves. […] The original CLSI guidelines focused on reading Candida MICs after 48 h of incubation. As reading after only 24 h offers a clear advantage of patient care, QC limits are being established for all drugs at 24 h. That being said there are no known interpretive breakpoints for amphotericin B at 24 h and the current fluconazole interpretive breakpoints are based on a 48 h reading. The MIC breakpoints for the Pharmaron test compounds were recorded at 48 h, and for the soraphen the 24 h time-point was added. All MIC determinations were achieved by visually comparing the growth found in the antibiotic challenged wells to that of the growth control.

[5] = tested on: C. parapsilosis ATCC 22019; assay: Anti-Fungal Activity Assay (broth microtiter MIC); format: cell-based; details: 3 replicates, test compounds read at 48 h
Method: as §2

[6] = tested on: C. albicans ATCC 90028; assay: Anti-Fungal Activity Assay (broth microtiter MIC); format: cell-based; details: 3 replicates, test compounds read at 48 h
Method: as §2

[7] = tested on: Candida species; assay: Anti-Fungal Activity Assay, summary over Candida species; format: cell-based; details: summary of Table 3
Method: as §2

[8] = tested on: HepG2 cells; assay: [14C] Acetate Incorporation HepG2 Cellular Assay; format: cell-based; details: Homo sapiens; HepG2 cells, FIG. 4; read-out: IC50, incorporation of isotopically labeled acetate into fatty acids
Method: Compounds of the present invention were evaluated in a [^14C] Acetate Incorporation Assay. An exemplary procedure for the assay, which measures the incorporation of isotopically labeled acetate into fatty acids, follows. HepG2 cells were maintained in T-75 flasks containing DMEM supplemented with 2 mM 1-glutamine, penicillin G (100 units/ml), streptomycin 100 μg/ml with 10% FBS and incubated in a humidified incubator with 5% CO2 at 37° C. Cells were fed every 2-3 days. On Day 1. cells were seeded in 24 well plates at a density of 1.2×10^5 cells/ml/well with the growth medium. On Day 3 the medium was replaced with fresh medium containing 10% FBS. On Day 4 the medium was replaced with 0.5 ml of fresh medium containing test compound (in DMSO; final [DMSO] is 0.5%) and the cells were incubated at 37° C. for 1 hour. To one copy of plate, 4 ul of [2-^14C]acetate (56 mCi/mmol; 1 mCi/ml; PerkinElmer) was added and the cells were incubated at 37° C., 5% CO2 for 5 hrs. To a second copy of plate, 4 ul of cold acetate were added and the cells were incubated at 37° C., 5% CO2 for 5 hrs. This plate was used for protein concentration measurement. Medium was removed and placed in a 15 ml centrifuge tube (BD, Falcon/352096). Cells were rinsed with 1 ml PBS, then aspirated, and the rinse and aspiration steps were repeated. 0.5 ml of 0.1N NaOH were added to each well and let sit at RT to dissolve cell monolayer. The remaining cell suspension was pooled with medium. For the protein determination plate, an aliquot was removed for protein determination (25 ul). […] 5 ml petroleum ether was added per tube, shaken vigorously, centrifuged at 1000 rpm for 5 min, and 500 uL of the petroleum ether layer was transferred to tubes for Microbeta reading, then 2 ml Aquasol-2 were added to each tube, the tubes were shaken and counted with a Microbeta Liquid Scintillation Counter (Perkin Elmer).
The remaining petroleum ether layer was discarded and the aqueous phase reserved for fatty acid extractions. […] 2 ml of Aquasol-2 was added to each vial, and the vials were shaken and counted on a scintillation counter.

[9] = tested on: fatty acid synthesis; assay: In Vivo Fatty Acid Synthesis Study ([C14]-acetate incorporated into rat liver tissue); details: FIG. 16
Method: Compounds of the present invention were also assayed in an In Vivo Fatty Acid Synthesis Study as described by Harwood et al. “Isozyme-nonselective N-Substituted Bipiperidylcarboxamide Acetyl-CoA Carboxylase Inhibitors Reduce Tissue Malonyl-CoA Concentrations, Inhibit Fatty Acid Synthesis, and Increase Fatty Acid Oxidation in Cultured Cells and in Experimental Animals” Journal of Biological Chemistry (2008) 278, 37099-37111. An exemplary procedure for the assay, which measures the amount of radioactive [C^14]-acetate incorporated into rat liver tissue, follows.
Animals given food ad water ad libitum were treated orally at a volume of 1.0 mL/200 g body weight (rat) with either an aqueous solution containing 0.5% methylcellulose (vehicle), or an aqueous solution containing 0.5% methylcellulose plus test compound. One to four hours after compound administration, animals received an intraperitoneal injection of 0.5 mL of [C^14]-acetate (64 uCi/mL; […]). […] The pooled organic fractions were transferred to liquid scintillation vials, dried under nitrogen, dissolved in 7 mL of Aquasol liquid scintillation fluid, and assessed for radioactivity using a Beckman 6500 liquid scintillation counter. Results were recorded as disintigrations per minute (DPM) per milligram of tissue.

[10] = Pichia kudriavzevii, ATCC6258, 48 h, read-out: MIC
[11] = Lodderomyces parapsilosis, ATCC22019, 48 h, read-out: MIC
[12] = Candida albicans, ATCC90028, 48 h, read-out: MIC

ACC2, sequence (O00763 whole entry, species assumed): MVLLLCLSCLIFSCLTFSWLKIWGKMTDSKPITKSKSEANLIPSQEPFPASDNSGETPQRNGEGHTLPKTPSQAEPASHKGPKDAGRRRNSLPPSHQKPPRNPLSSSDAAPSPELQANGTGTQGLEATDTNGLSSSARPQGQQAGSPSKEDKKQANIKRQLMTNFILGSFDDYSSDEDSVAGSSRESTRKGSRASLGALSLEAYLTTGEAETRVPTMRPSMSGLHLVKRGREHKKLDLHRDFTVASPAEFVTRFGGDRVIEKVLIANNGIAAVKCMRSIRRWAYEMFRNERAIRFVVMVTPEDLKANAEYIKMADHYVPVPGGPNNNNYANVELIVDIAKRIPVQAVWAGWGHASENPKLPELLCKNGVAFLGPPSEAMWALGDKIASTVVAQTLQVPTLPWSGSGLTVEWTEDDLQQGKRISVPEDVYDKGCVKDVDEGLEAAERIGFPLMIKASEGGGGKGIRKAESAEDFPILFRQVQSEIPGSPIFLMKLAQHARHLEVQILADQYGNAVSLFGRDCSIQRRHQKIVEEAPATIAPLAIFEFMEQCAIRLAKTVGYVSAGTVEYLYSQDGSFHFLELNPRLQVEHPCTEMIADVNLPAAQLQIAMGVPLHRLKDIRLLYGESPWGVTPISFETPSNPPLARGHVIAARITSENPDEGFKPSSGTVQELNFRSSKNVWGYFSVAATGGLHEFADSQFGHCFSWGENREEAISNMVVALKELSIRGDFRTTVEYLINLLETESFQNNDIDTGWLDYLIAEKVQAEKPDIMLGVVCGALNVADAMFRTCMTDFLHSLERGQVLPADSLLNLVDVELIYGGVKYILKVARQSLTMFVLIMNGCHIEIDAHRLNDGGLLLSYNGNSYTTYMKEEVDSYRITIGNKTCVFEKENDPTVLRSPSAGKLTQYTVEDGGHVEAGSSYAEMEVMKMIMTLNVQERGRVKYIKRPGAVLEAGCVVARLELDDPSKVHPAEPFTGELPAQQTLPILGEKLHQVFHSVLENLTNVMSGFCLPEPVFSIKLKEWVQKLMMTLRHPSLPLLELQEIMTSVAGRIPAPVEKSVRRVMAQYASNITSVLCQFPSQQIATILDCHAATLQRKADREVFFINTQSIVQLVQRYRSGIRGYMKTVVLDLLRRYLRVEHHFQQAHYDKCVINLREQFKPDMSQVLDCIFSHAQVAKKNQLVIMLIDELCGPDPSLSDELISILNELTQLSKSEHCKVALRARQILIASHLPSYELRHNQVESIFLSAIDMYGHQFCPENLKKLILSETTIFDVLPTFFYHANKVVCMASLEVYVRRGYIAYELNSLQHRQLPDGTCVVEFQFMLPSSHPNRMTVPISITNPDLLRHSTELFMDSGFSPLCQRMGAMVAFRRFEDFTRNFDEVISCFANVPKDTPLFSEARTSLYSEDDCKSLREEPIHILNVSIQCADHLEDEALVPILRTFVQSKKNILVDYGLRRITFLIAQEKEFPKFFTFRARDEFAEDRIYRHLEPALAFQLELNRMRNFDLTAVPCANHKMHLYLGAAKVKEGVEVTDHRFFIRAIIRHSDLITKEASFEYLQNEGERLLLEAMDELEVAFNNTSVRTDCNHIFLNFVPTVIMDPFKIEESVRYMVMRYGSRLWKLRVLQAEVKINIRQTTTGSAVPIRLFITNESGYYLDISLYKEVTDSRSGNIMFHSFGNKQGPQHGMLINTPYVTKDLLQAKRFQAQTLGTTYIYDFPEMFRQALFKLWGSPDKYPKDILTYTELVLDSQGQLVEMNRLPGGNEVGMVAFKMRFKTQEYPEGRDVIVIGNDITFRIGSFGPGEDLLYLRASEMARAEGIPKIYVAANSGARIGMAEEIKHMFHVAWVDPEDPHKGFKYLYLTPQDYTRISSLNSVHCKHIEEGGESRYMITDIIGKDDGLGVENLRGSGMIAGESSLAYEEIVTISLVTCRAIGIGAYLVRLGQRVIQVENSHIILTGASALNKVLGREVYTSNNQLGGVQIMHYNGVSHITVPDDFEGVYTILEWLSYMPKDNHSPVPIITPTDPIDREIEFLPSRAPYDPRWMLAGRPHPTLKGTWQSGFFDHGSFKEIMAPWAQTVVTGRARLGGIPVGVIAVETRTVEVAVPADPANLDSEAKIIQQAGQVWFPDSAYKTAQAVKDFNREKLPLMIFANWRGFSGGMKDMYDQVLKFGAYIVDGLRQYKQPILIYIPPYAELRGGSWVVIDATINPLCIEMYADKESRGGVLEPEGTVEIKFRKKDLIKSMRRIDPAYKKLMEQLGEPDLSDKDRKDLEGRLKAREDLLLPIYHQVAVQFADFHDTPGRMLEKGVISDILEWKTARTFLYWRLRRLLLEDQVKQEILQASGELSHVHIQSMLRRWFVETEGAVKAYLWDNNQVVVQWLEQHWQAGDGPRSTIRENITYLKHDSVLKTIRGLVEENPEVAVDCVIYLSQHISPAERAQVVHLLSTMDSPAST

In the case of `CCOC(=O)c1sc2c(c1C)c(=O)n(CC(=O)O)c(=O)n2CC(OC(C)C)c1ccccc1` (stereo in doubt) [I-97, (R)-2-(6-(ethoxycarbonyl)-1-(2-isopropoxy-2-phenylethyl)-5-methyl-2,4-dioxo-1,2-dihydrothieno[2,3-d]pyrimidin-3(4H)-yl)acetic acid], the pIC50 [1] was > 6.00, the pIC50 [2] was > 7.00 and the “thermal melting point change” value ([3]; FIG. 2) was “more than 14 ′C”.
For `COc1ccccc1[C@H](Cn1c(=O)n(C(C)(C)C(=O)N2CCOCC2)c(=O)c2c(C)c(-c3ncco3)sc21)OC(C)C` [I-235, 1-[(2R)-2-(2-methoxyphenyl)-2-(propan-2-yloxy)ethyl]-5-methyl-3-[2-methyl-1-(morpholin-4-yl)-1-oxopropan-2-yl]-6-(1,3-oxazol-2-yl)-1H,2H,3H,4H-thieno[2,3-d]pyrimidine-2,4-dione], the pIC50 [1] was > 7.00, the MIC [4] was 8 µg/mL (≈ 13.4 µM) and the MIC [4, 10] was 8 µg/mL (≈ 13.4 µM). The MIC [5] was 8 µg/mL (≈ 13.4 µM), the MIC [5, 11] was 8 µg/mL (≈ 13.4 µM) and the MIC [6] was 8 µg/mL (≈ 13.4 µM). For the same compound, the MIC [6, 12] was 8 µg/mL (≈ 13.4 µM), the “anti-fungal activity MICs” value [7] was “low ug/mL range” and the pIC50 [2] was > 7.00.
With `COc1ccccc1[C@H](Cn1c(=O)n(C(C)(C)C(N)=O)c(=O)c2c(C)c(-c3ncco3)sc21)OC(C)C` [I-174, 2-[1-[(2R)-2-(2-methoxyphenyl)-2-(propan-2-yloxy)ethyl]-5-methyl-6-(1,3-oxazol-2-yl)-2,4-dioxo-1H,2H,3H,4H-thieno[2,3-d]pyrimidin-3-yl]-2-methylpropanamide] the pIC50 [1] was > 7.00, the pIC50 [8] was > 7.00 and the MIC [4] was 2 µg/mL (≈ 3.8 µM). The MIC [4, 10] was 2 µg/mL (≈ 3.8 µM), the MIC [5] was 8 µg/mL (≈ 15.2 µM) and the MIC [5, 11] was 8 µg/mL (≈ 15.2 µM). The MIC [6] was 2 µg/mL (≈ 3.8 µM), the MIC [6, 12] was 2 µg/mL (≈ 3.8 µM) and the “anti-fungal activity MICs” value [7] was “low ug/mL range”. The pIC50 [2] was > 7.00 and the “thermal melting point change compared with Soraphen A” value ([3]; FIG. 3) was “equivalent to that of Soraphen A”.
For `COc1ccccc1[C@H](Cn1c(=O)n(C(C)(C)C(=O)O)c(=O)c2c(C)c(-c3ncco3)sc21)O[C@H]1CC[C@@H](O)CC1` [I-278, 2-[1-[(2R)-2-[(4-hydroxycyclohexyl)oxy]-2-(2-methoxyphenyl)ethyl]-5-methyl-6-(1,3-oxazol-2-yl)-2,4-doxo-1H,2H,3H,4H-thieno[2,3-d]pyrimidin-3-yl]-2-methylpropanoic acid], the pIC50 [1] was > 7.00, the “fatty acid (FA) synthesis in rats” value [9] was “dose-dependent decrease in FA synthesis” and the pIC50 [2] was > 7.00.
In the case of `COc1ccccc1[C@H](Cn1c(=O)n(C(C)(C)C(N)=O)c(=O)c2c(C)c(-c3ncco3)sc21)OC1CCOCC1` [I-246, 2-[1-[(2R)-2-(2-methoxyphenyl)-2-(oxan-4-yloxy)ethyl]-5-methyl-6-(1,3-oxazol-2-yl)-2,4-dioxo-1H,2H,3H,4H-thieno[2,3-d]pyrimidin-3-yl]-2-methylpropanamide], the MIC [4] was 16 µg/mL (≈ 28.1 µM), the MIC [4, 10] was 16 µg/mL (≈ 28.1 µM) and the MIC [5] was 4 µg/mL (≈ 7.03 µM). The MIC [5, 11] was 4 µg/mL (≈ 7.03 µM), the MIC [6] was 4 µg/mL (≈ 7.03 µM) and the MIC [6, 12] was 4 µg/mL (≈ 7.03 µM). The “anti-fungal activity MICs” value [7] was “low ug/mL range”.
`COc1ccccc1[C@H](Cn1c(=O)n(C(C)(C)C(=O)O)c(=O)c2c(C)c(-c3ncco3)sc21)OC(C)C` [I-159, 2-[1-[(2R)-2-(2-methoxyphenyl)-2-(propan-2-yloxy)ethyl]-5-methyl-6-(1,3-oxazol-2-yl)-2,4-dioxo-1H,2H,3H,4H-thieno[2,3-d]pyrimidin-3-yl]-2-methylpropanoic acid] was tested, and the pIC50 [1] was > 6.00, the MIC [4] was 16 µg/mL and 32 µg/mL and the MIC [4, 10] was 16 µg/mL (≈ 30.3 µM). The MIC [5] was >64 µg/mL, the MIC [5, 11] was > 64 µg/mL and the MIC [6] was 8 µg/mL (≈ 15.2 µM). For the same compound, the MIC [6, 12] was 8 µg/mL (≈ 15.2 µM) and the “anti-fungal activity MICs” value [7] was “low ug/mL range”.
With `Cc1c(-c2ncco2)sc2c1c(=O)n(C(C)(C)C(=O)O)c(=O)n2C[C@H](Oc1ccc(-n2ccnc2)cc1)c1ccccc1` [I-160, 2-[1-[(2R)-2-[4-(1H-imidazol-1-yl)phenoxy]-2-phenylethyl]-5-methyl-6-(1,3-oxazol-2-yl)-2,4-dioxo-1H,2H,3H,4H-thieno[2,3-d]pyrimidin-3-yl]-2-methylpropanoic acid] the pIC50 [1] was > 7.00, the MIC [4] was >64 µg/mL and the MIC [4, 10] was > 64 µg/mL. The MIC [5] was >64 µg/mL, the MIC [5, 11] was > 64 µg/mL and the MIC [6] was >64 µg/mL. For the same compound, the MIC [6, 12] was > 64 µg/mL and the pIC50 [2] was > 7.00.
For `CCNC(=O)C(C)(C)n1c(=O)c2c(C)c(-c3ncco3)sc2n(C[C@H](OC(C)C)c2ccccc2OC)c1=O` [I-236, N-ethyl-2-[1-[(2R)-2-(2-methoxyphenyl)-2-(propan-2-yloxy)ethyl]-5-methyl-6-(1,3-oxazol-2-yl)-2,4-dioxo-1H,2H,3H,4H-thieno[2,3-d]pyrimidin-3-yl]-2-methylpropanamide], the pIC50 [1] was > 7.00, the MIC [4] was 4 µg/mL (≈ 7.21 µM) and the MIC [4, 10] was 8 µg/mL (≈ 14.4 µM). The MIC [5] was 2 µg/mL (≈ 3.61 µM), the MIC [5, 11] was 2 µg/mL (≈ 3.61 µM) and the MIC [6] was 8 µg/mL (≈ 14.4 µM). For the same compound, the MIC [6, 12] was 8 µg/mL (≈ 14.4 µM), the “anti-fungal activity MICs” value [7] was “low ug/mL range” and the pIC50 [2] was > 7.00.
